pIC50: −log10 of the molar value.
Legend:
[1] = molecular target: T1, human JAK2 (Homo sapiens, UniProt O60674); test: JAK2 inhibition assay (polyGT substrate / Ulight-JAK1 peptide); format: biochemical; details: recombinant human JAK2 catalytic domain; polyGT or Ulight-JAK1 peptide assay
T1 construct: catalytic domain (amino acids 808-1132; catalog number PV4210); GST; purchased Invitrogen PV4210
Summary of the method: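 Two JAK2 formats: a ^33P-ATP polyGT assay (1 μM cold ATP, 90 min, 30° C., cpm read-out) and a Ulight-JAK1 peptide assay read by Europium-anti-phosphotyrosine fluorescence after 60 min at room temperature.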

[2] = molecular target: T2, human TYK2 (Homo sapiens, UniProt P29597); test: TYK2 inhibition assay; format: biochemical; details: recombinant human TYK2 catalytic domain, polyGT substrate
T2 construct: catalytic domain (amino acids 871-1187; catalog number 08-147); purchased Carna Biosciences 08-147
T2 sequence (P29597 871-1187): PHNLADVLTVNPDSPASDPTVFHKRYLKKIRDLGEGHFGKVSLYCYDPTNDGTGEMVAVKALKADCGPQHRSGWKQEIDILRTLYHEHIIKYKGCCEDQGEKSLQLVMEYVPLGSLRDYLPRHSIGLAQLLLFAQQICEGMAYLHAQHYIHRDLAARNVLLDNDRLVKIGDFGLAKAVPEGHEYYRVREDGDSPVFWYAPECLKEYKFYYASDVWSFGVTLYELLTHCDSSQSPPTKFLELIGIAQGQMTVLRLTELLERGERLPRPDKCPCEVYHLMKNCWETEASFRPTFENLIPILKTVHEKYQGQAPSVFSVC
Summary of the method: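 Radiometric kinase reaction run 90 min at 30 °C, stopped with phosphoric acid, washed and scintillation-counted.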

T1 sequence (O60674 808-1132): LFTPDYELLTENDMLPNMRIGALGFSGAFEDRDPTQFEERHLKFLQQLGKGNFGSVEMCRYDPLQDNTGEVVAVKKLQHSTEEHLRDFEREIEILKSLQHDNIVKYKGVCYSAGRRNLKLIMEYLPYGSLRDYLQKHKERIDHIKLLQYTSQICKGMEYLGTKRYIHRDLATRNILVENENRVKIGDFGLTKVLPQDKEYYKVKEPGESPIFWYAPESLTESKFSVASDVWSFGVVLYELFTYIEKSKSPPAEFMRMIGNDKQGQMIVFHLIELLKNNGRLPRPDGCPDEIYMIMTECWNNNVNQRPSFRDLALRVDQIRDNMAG

| pIC50 [1] | pIC50 [2] | Compound |
| --- | --- | --- |
| < 6.00 | 6.00 to 6.30 | Cc1cc(CO)ccc1N(C)c1cc2c(cn1)ncn2C [Compound 29, (3-Methyl-4-(methyl(1-methyl-1H-imidazo[4,5-c]pyridin-6-yl)amino)phenyl) MeOH] |
| < 6.00 | 6.00 to 6.30 | Cc1cc(C#N)ccc1N(C)c1cc2c(cn1)ncn2C [Compound 31, 3-Methyl-4-(methyl(1-methyl-1H-imidazo[4,5-c]pyridin-6-yl)amino)benzonitrile] |
| < 6.00 | 6.00 to 6.30 | Cc1cc(OCCCC#N)ccc1N(C)c1cc2c(cn1)ncn2C [Compound 48, 4-(3-methyl-4-(methyl(1-methyl-1H-imidazo[4,5-c]pyridin-6-yl)amino)phenoxy)butane nitrile] |
| < 6.00 | 6.00 to 6.30 | Cc1ccc(OCCCC#N)cc1N(C)c1cc2c(cn1)ncn2C [Compound 60, 4-(4-methyl-3-(methyl(1-methyl-1H-imidazo[4,5-c]pyridin-6-yl)amino)phenoxy)butane nitrile] |
| < 6.00 | < 6.00 | Cc1ccc(OCc2cccnc2)cc1N(C)c1cc2c(cn1)ncn2C [Compound 61, N,1-dimethyl-N-(2-methyl-5-(pyridin-3-ylmethoxy)phenyl)-1H-imidazo[4,5-c]pyridin-6-amine] |
| 6.30 to 7.00 | 7.00 to 11.00 | Cc1cc(-c2cn[nH]c2)ccc1N(C)c1cc2c(cn1)ncn2C [Compound 71, N,1-Dimethyl-N-(2-methyl-4-(1H-pyrazol-4-yl)phenyl)-1H-imidazo[4,5-c]pyridin-6-amine] |
| 6.30 to 7.00 | 6.30 to 7.00 | CCc1ccc(C#N)cc1N(C)c1cc2c(cn1)ncn2C [Compound 83, 4-ethyl-3-(methyl(1-methyl-1H-imidazo[4,5-c]pyridin-6-yl)amino)benzonitrile] |
| 6.00 to 6.30 | 6.30 to 7.00 | CCc1cc(C(=O)NC)ccc1N(C)c1cc2c(cn1)ncn2C [Compound 85] |
| < 6.00 | < 6.00 | Cc1ccc(Oc2ccc(C#N)nc2)cc1N(C)c1cc2c(cn1)ncn2C [Compound 91, 5-(4-methyl-3-(methyl(1-methyl-1H-imidazo[4,5-c]pyridin-6-yl)amino)phenoxy)picolino-nitrile] |
| 6.30 to 7.00 | 7.00 to 11.00 | CCc1cc(-c2cccnc2)ccc1N(C)c1cc2c(cn1)ncn2C [Compound 94, N-(2-ethyl-4-(pyridin-3-yl)phenyl)-N,1-dimethyl-1H-imidazo[4,5-c]pyridin-6-amine] |
| < 6.00 | 6.30 to 7.00 | CCNC(=O)c1ccc(N(C)c2cc3c(cn2)ncn3C)c(CC)c1 [Compound 102, N,3-diethyl-4-(methyl(1-methyl-1H-imidazo[4,5-c]pyridin-6-yl)amino)benzamide] |
| 6.30 to 7.00 | 7.00 to 11.00 | CCc1cc(COC)ccc1N(C)c1cc2c(cn1)ncn2C [Compound 105, N-(2-Ethyl-4-(methoxymethyl)phenyl)-N,1-dimethyl-1H-imidazo[4,5-c]pyridin-6-amine] |

The remaining lines, values behind:

| Compound | pIC50 [1] | pIC50 [2] |
| --- | --- | --- |
| CN(c1ccc(O)cc1)c1cc2c(cn1)ncn2C [Compound 17, 4-(methyl(1-methyl-1H-imidazo[4,5-c]pyridin-6-yl)amino)phenol] | 6.00 to 6.30 | 6.30 to 7.00 |
| CN(c1ccc(CC#N)cc1)c1cc2c(cn1)ncn2C [Compound 26, 2-(4-(Methyl(1-methyl-1H-imidazo[4,5-c]pyridin-6-yl)amino)phenyl)acetonitrile] | 6.30 to 7.00 | 6.30 to 7.00 |
| COC(=O)c1ccc(N(C)c2cc3c(cn2)ncn3C)c(C)c1 [Compound 27, Methyl 3-methyl-4-(methyl(1-methyl-1H-imidazo[4,5-c]pyridin-6-yl)amino)benzoate] | < 6.00 | < 6.00 |
| CCc1cc(F)ccc1N(C)c1cc2c(cn1)ncn2C [Compound 28, N-(2-Ethyl-4-fluorophenyl)-N,1-dimethyl-1H-imidazo[4,5-c]pyridin-6-amine] | 6.00 to 6.30 | 6.30 to 7.00 |
| CNC(=O)c1ccc(N(C)c2cc3c(cn2)ncn3C)c(C)c1 [Compound 30, N,3-Dimethyl-4-(methyl(1-methyl-1H-imidazo[4,5-c]pyridin-6-yl)amino)-benzamide] | < 6.00 | < 6.00 |
| Cc1cc(C(N)=O)ccc1N(C)c1cc2c(cn1)ncn2C [Compound 32, 3-Methyl-4-(methyl(1-methyl-1H-imidazo[4,5-c]pyridin-6-yl)amino)benzamide] | < 6.00 | < 6.00 |
| COc1ccc(COc2ccc(N(C)c3cc4c(cn3)ncn4C)c(C)c2)cc1 [Compound 33, N-(4-(4-Methoxybenzyloxy)-2-methylphenyl)-N,1-dimethyl-1H-imidazo[4,5-c]pyridin-6-amine] | < 6.00 | < 6.00 |
| CCc1ccccc1N(CC)c1cc2c(cn1)ncn2C [Compound 34, N-Ethyl-N-(2-ethylphenyl)-1-methyl-1H-imidazo[4,5-c]pyridin-6-amine] | 6.00 to 6.30 | 7.00 to 11.00 |
| CCc1ccccc1N(CC1CC1)c1cc2c(cn1)ncn2C [Compound 35, N-(cyclopropylmethyl)-N-(2-ethylphenyl)-1-methyl-1H-imidazo[4,5-c]pyridin-6-amine] | < 6.00 | 6.30 to 7.00 |
| Cc1cc(O)ccc1N(C)c1cc2c(cn1)ncn2C [Compound 38, 3-Methyl-4-(methyl(1-methyl-1H-imidazo[4,5-c]pyridin-6-yl)amino)phenol] | < 6.00 | 6.30 to 7.00 |
| CN(c1cc2c(cn1)ncn2C)c1ccccc1OC(F)F [Compound 39, N-(2-(difluoromethoxy)phenyl)-N,1-dimethyl-1H-imidazo[4,5-c]pyridin-6-amine] | 6.00 to 6.30 | 6.00 to 6.30 |
| COc1ccc(COc2ccc(C)c(N(C)c3cc4c(cn3)ncn4C)c2)cc1 [Compound 43, N-(5-(4-methoxybenzyloxy)-2-methylphenyl)-N,1-dimethyl-1H-imidazo[4,5-c]pyridin-6-amine] | < 6.00 | < 6.00 |
| Cc1cc(OCC#N)ccc1N(C)c1cc2c(cn1)ncn2C [Compound 47, 2-(3-methyl-4-(methyl(1-methyl-1H-imidazo[4,5-c]pyridin-6-yl)amino)phenoxy)acetoni-trile] | 6.30 to 7.00 | 6.30 to 7.00 |
| Cc1ccc(OCc2ccccc2)cc1N(C)c1cc2c(cn1)ncn2C [Compound 56, N-(5-(benzyloxy)-2-methylphenyl)-N,1-dimethyl-1H-imidazo[4,5-c]pyridin-6-amine] | < 6.00 | < 6.00 |
| Cc1ccc(OCC#N)cc1N(C)c1cc2c(cn1)ncn2C [Compound 57, 2-(4-methyl-3-(methyl(1-methyl-1H-imidazo[4,5-c]pyridin-6-yl)amino)phenoxy)acetoni-trile] | 6.30 to 7.00 | 6.00 to 6.30 |
| Cc1ccc(OCc2ccc(Cl)cc2)cc1N(C)c1cc2c(cn1)ncn2C [Compound 62, N-(5-(4-chlorobenzyloxy)-2-methylphenyl)-N,1-dimethyl-1H-imidazo[4,5-c]pyridin-6-amine] | < 6.00 | < 6.00 |
| Cc1ccc(OCC(C)C)cc1N(C)c1cc2c(cn1)ncn2C [Compound 63, N-(5-isobutoxy-2-methylphenyl)-N,1-dimethyl-1H-imidazo[4,5-c]pyridin-6-amine] | < 6.00 | < 6.00 |
| Cc1c(OCC#N)cccc1N(C)c1cc2c(cn1)ncn2C [Compound 64, 2-(2-methyl-3-(methyl(1-methyl-1H-imidazo[4,5-c]pyridin-6-yl)amino)phenoxy)acetoni-trile] | 6.30 to 7.00 | 6.30 to 7.00 |
| Cc1cc(-c2cncnc2)ccc1N(C)c1cc2c(cn1)ncn2C [Compound 72, N,1-dimethyl-N-(2-methyl-4-(pyrimidin-5-yl)phenyl)-1H-imidazo[4,5-c]pyridin-6-amine] | < 6.00 | 6.00 to 6.30 |
| Cc1cc(-c2cnn(C)c2)ccc1N(C)c1cc2c(cn1)ncn2C [Compound 73, N,1-dimethyl-N-(2-methyl-4-(1-methyl-1H-pyrazol-4-yl)phenyl)-1H-imidazo[4,5-c]pyridin-6-amine] | 6.00 to 6.30 | 6.30 to 7.00 |
| CCc1cc(C(=O)OC)ccc1N(C)c1cc2c(cn1)ncn2C [Compound 80, Methyl 3-ethyl-4-(methyl(1-methyl-1H-imidazo[4,5-c]pyridin-6-yl)amino)benzoate] | 6.30 to 7.00 | 6.30 to 7.00 |
| CCc1ccc(F)cc1N(C)c1cc2c(cn1)ncn2C [Compound 84, N-(2-ethyl-5-fluorophenyl)-N,1-dimethyl-1H-imidazo[4,5-c]pyridin-6-amine] | 6.30 to 7.00 | 6.30 to 7.00 |
| CCc1cc(C(=O)NCCC#N)ccc1N(C)c1cc2c(cn1)ncn2C [Compound 86, N-(2-Cyanoethyl)-3-ethyl-4-(methyl(1-methyl-1H-imidazo[4,5-c]pyridin-6-yl)amino)benzamide] | 6.00 to 6.30 | 6.00 to 6.30 |
| CCc1cc(C(=O)NCc2ccccc2)ccc1N(C)c1cc2c(cn1)ncn2C [Compound 98, N-benzyl-3-ethyl-4-(methyl(1-methyl-1H-imidazo[4,5-c]pyridin-6-yl)amino)benzamide] | 6.00 to 6.30 | 6.00 to 6.30 |
| CCc1cc(C(C)(C)O)ccc1N(C)c1cc2c(cn1)ncn2C [Compound 103, 2-(3-Ethyl-4-(methyl(1-methyl-1H-imidazo[4,5-c]pyridin-6-yl)amino)phenyl)propan-2-ol] | 6.30 to 7.00 | 7.00 to 11.00 |

— patent US20130217664A1, “NOVEL COMPOUNDS USEFUL FOR THE TREATMENT OF DEGENERATIVE AND INFLAMMATORY DISEASES” (priority 2012, published 2013)
